Measurements reported in US8906917B2, “Pyrimidine cyclohexyl glucocorticoid receptor modulators” (Corcept Therapeutics, Inc., priority 2011, dated 2014).

Columns and labels:
[1] = target: T1, Human Recombinant Glucocorticoid Receptor (Homo sapiens, UniProt P04150); assay: Glucocorticoid receptor binding displacement assay with 3H-dexamethasone; details: displacement of 2.5 nM 3H-dexamethasone, 2.5 hrs at 4° C.; Ki from IC50 by Cheng-Prusoff; read-out: GR Binding Ki
T1 construct: This GR was a full-length steroid hormone receptor; host or cells: recombinant baculovirus-infected insect cells
T1 sequence (P04150 1-777): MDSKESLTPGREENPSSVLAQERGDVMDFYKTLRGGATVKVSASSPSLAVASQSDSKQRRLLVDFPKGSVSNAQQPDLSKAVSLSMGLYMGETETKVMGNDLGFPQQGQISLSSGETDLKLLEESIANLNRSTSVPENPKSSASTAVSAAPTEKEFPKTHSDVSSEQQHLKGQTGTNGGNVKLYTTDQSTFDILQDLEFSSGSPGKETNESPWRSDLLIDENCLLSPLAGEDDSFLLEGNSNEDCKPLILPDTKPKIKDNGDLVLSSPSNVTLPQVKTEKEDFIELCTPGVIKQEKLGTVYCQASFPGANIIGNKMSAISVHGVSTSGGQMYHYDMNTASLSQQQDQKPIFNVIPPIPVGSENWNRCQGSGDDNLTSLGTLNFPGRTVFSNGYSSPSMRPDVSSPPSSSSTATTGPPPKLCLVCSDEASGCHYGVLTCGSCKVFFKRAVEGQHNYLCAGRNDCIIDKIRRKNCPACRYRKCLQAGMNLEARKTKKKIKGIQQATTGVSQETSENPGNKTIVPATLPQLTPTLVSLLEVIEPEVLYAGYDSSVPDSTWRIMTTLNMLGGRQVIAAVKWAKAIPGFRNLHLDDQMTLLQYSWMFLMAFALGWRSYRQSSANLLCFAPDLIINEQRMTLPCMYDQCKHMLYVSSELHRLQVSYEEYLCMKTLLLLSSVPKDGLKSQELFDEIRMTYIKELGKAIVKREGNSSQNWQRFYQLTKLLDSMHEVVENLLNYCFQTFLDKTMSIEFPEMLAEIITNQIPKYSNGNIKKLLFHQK
Protocol: Binding protocol: Compounds were tested in a binding displacement assay using human recombinant glucocorticoid receptor with ^3H-dexamethasone as the ligand. The source of the receptor was recombinant baculovirus-infected insect cells. This GR was a full-length steroid hormone receptor likely to be associated with heat-shock and other endogenous proteins.
For the IC50 determinations, test compounds were tested at 6 concentrations in duplicate. Test compounds were diluted from 10 mM stock in 100% DMSO. The tested solutions were prepared at 2× final assay concentration in 2% DMSO/assay buffer.
All reagents and the assay plate were kept on ice during the addition of reagents. The reagents were added to wells of a v-bottomed polypropylene plate in the following order: 25 μl of 10 nM 3H-dexamethasone solution, 50 μl of TB/NSB/compound solution and 25 μl of 2 nM GR solution. After the additions, the incubation mixture was mixed and incubated for 2.5 hrs at 4° C.
Alter 2.5 hrs incubation, unbound counts were removed with dextran coated charcoal (DCC) as follows: 15 μl of DCC solution (10% DCC in assay buffer) was added to all wells and mixed (total volume 115 μl). The plate was centrifuged at 4000 rpm for 10 minutes at 4° C. 75 μl of the supernatants was carefully pipetted into an optiplate. 150 μl of scintillation cocktail were added (Microscint-40, Perkin Elmer). The plate was vigorously shaken for approx. 10 minutes and counted on Topcount.
The IC50 values were converted to Ki (the inhibition constant) using the Cheng-Prusoff equation.
Reagents: Assay buffer: 10 mM potassium phosphate buffer pH 7.6 containing 5 mM DTT, 10 mM sodium molybdate, 100 μM EDTA and 0.1% BSA.

[2] = target: T2, glucocorticoid receptors (endogenous) in SW1353/MMTV-5 cells (Homo sapiens, UniProt P04150); assay: GR functional assay using SW1353/MMTV-5 cells (MMTV-GRE luciferase reporter); type: cell-based
T2 construct: contains endogenous glucocorticoid receptors; endogenous in cells; host or cells: SW1353/MMTV-5 (human chondrosarcoma, stably transfected with pMAMneo-Luc reporter)
T2 sequence (P04150 1-777): T1 sequence (P04150 1-777)
Protocol: SW1353/MMTV-5 is an adherent human chondrosarcoma cell line that contains endogenous glucocorticoid receptors. It was transacted with a plasmid (pMAMneo-Luc) encoding firefly luciferase located behind a glucocorticoid-responsive element (GRE) derived from a viral promoter (long terminal repeat of mouse mammary tumor virus). A stable cell line SW1353/MMTV-5 was selected with geneticin, which was required to maintain this plasmid.
SW1353/MMTV-5 cells were distributed in 96-well plates and incubated in medium (without geneticin) for 24 hrs.

Row | Compound | Ki [1] [µM] | Ki [2] [µM]
1 | COCCn1c(=O)[nH]c([C@H]2CC[C@H](c3ccccc3)CC2)c(Cc2cccc(C(F)(F)F)c2)c1=O [Compound 13g, (E)-3-(2-Methoxy-ethyl)-6-(4-phenyl-cyclohexyl)-5-(3-trifluoromethyl-benzyl)-1H-pyrimidine-2,4-dione] | > 0.01 | > 0.1
2 | Cn1c(=O)[nH]c([C@H]2CC[C@H](c3ccccc3)CC2)c(Cc2ccccc2)c1=O [Compound 13h] | > 0.01 | 0.05 to 0.1
